This is an account of results in patent publication US20240400572A1, “COMPOUNDS AND METHODS FOR TREATING CANCERS THAT ARE MGMT DEFICIENT REGARDLESS OF MMR STATUS” (Yale University, priority 2021, published 2024).

Where “and” joins values, the source holds several entries; their conditions need not be identical. Identical values can stand only once. Like-named read-outs stand apart in the source and are kept apart here.

Data set [1] can be described thus: Pharmacokinetic study, plasma. To be noted: male C57BL/6 mice. In kind it is in vivo. The method, then: Compound KL50 dosing solution: 3.39% DMSO+96.61% (10% HP-β-CD in saline) at 2 mg/mL; • 1) Weigh 17.39 mg of compound KL50 into a clean tube. • 2) Add 0.295 mL DMSO into the tube containing the compound. • 3) Vortex the tube for 3 min and sonicate it for 4 min. • 4) Add 8.400 mL 10% HP-β-CD in saline into the tube and vortex the tube for 3 min. Compound I-1 dosing solution: 3.39% DMSO+96.61% (10% HP-β-CD in saline) at 2 mg/mL; • 1) Weigh 16.86 mg Compound I-1 into a clean tube. • 2) Add 0.286 mL DMSO into the tube containing the compound. • 3) Vortex the tube for 3 min and sonicate it for 4 min. • 4) Add 8.144 mL 10% HP-β-CD in saline into the tube and vortex the tube for 3 min.
The in-vivo pharmacokinetic and brain distribution study was conducted under the following parameters. Twenty seven C57BL/6 male mice were purchased from Shanghai JiHui Laboratory Animal Co. LTD. Each mouse weighted from 16 g to 17 g. The mice were fasted overnight and fed post 4 hr sampling. Compound KL50 and Compound I-I were administered via oral gavage (PO) at a dose of 20 mg/kg (10 mL/kg). After dosing, sampling was completed at 0.083, 0.167, 0.333, 0.5, 0.75, 1, 2, 4 and 8 hr post dose, with three mice sacrificed at each time point.
Terminal bleeding for plasma and brain was completed at each time point. Approximately 110 μL blood per time point was collected into a K2EDTA tube via the facial vein. The blood sample was put on wet ice and centrifuged to obtain plasma sample (2000 g, 5 min under 4° C.) within 15 minutes. Plasma samples were acidified with 6 μL of formic acid for every 54 μL of plasma. After blood collection, a mid-line incision was made in the animal's scalp and the skin was retracted. The skull overlying the brain was removed. Then, the whole brain was collected, rinsed with cold saline, dried on filtrate paper, and weighed; and then snap frozen by placing the brain into dry-ice. Plasma samples were stored at approximately −70° C. until analysis. Brain tissue was homogenized with 3 volumes (v/w) of PBS (1% FA) and then analyzed with LC-MS/MS. The concentration of study drug was corrected with a dilution factor of four as following: Brain concentration=brain homogenate conc.×4, assuming 1 g wet brain tissue equals to 1 mL

For data set [2], the system named is HCT116 MLH1−/− cells and HCT116+Chr3 cells. Nature of the data set: Short-term cell viability assay with or without O^6BG. Format: cell-based, human. From the text: (§1) FIGS. Z2A-Z2H. […] (FIG. Z2A) IC50 values derived from short-term viability assays in LN229 MGMT+/−, MMR+/− cells treated with TMZ (1a) derivatives. ^aMGMT TI (therapeutic index)=IC50 (MGMT+/MMR+) divided by IC50 (MGMT−/MMR+). ^bMMR RI (resistance index)=IC50 (MGMT−/MMR−) divided by IC50 (MGMT−/MMR+). (FIG. Z2B) Short-term viability assay curves for TMZ (1a), CCNU (14), KL-85 (4b), and KL-50 (4a) in LN229 MGMT+/−, MMR+/− cells. (FIG. Z2C) Clonogenic survival curves for TMZ (1a) in LN229 MGMT+/−, MMR+/− cells, with representative images of wells containing 1000 plated cells treated with 30 μM TMZ (1a). (FIG. Z2D) Clonogenic survival curves for KL-50 (4a) in LN229 MGMT+/−, MMR+/− cells, with representative images of wells containing 1000 plated cells treated with 30 μM KL-50 (4a). (FIG. Z2E) Short-term viability assay curves for TMZ (1a) in DLD1 MSH6-deficient cells pre-treated with 0.01% DMSO control (CTR) or 10 μM O^6BG (+O^6BG) for 1 h prior to TMZ (1a) addition to deplete MGMT. (FIG. Z2F) Short-term viability assay curves for KL-50 (4a) in DLD1 MSH6-deficient cells pre-treated with 0.01% DMSO control (CTR) or 10 μM O^6BG (+O^6BG) for 1 h prior to KL-50 (4a) addition. (FIG. Z2G) Short-term viability assay curves for TMZ (1a) in HCT116 MLH1−/− cells or HCT116 cells complemented with chromosome 3 carrying wildtype MLH1 (+Chr3) pre-treated with 0.01% DMSO control or 10 μM O^6BG (+O^6BG) for 1 h prior to TMZ (1a) addition. (FIG. Z2H) Short-term viability assay curves for KL-50 (4a) in HCT116 MLH1−/− cells or HCT116 cells complemented with chromosome 3 carrying wildtype MLH1 (+Chr3) pre-treated with 0.01% DMSO control or 10 μM O^6BG (+O^6BG) for 1 h prior to KL-50 (4a) addition. For (FIG. Z2B), (FIG. Z2C), (FIG. Z2D), (FIG. Z2E), (FIG. Z2F), (FIG. Z2G), and (FIG. Z2H), points, mean; error bars, SD; n≥3 technical replicates.
(§2) Short-term Cell Viability Assay. Cells were seeded in 96-well plates at 1000 or 2000 cells/well and allowed to adhere at 23° C. for 60 min and then incubated overnight at 37° C. Cells were treated with indicated concentrations of compounds in triplicate for 4-6 days prior to fixation with 3.7% paraformaldehyde and nuclear staining with 1 μg/mL Hoechst 33342 dye. Cells were imaged on a Cytation 3 imaging reader (BioTek) and quantified using CellProfiler software.

Data set [3] has as its system DLD1 MSH6-deficient cells. The data set is described as above. Format: cell-based, human. To be noted: DLD1 (MGMT+, MSH6−), with or without 10 μM O^6BG-induced MGMT depletion.
Source text: as §1, §2

One may read the AUC(0-inf) as total exposure, with the tail of the curve extrapolated. A lower AUC(0-inf) goes with less exposure. In general, AUC(0-t) refers to exposure summed from dosing to a finite time, without extrapolation to infinity. Usually Cmax stands for the highest concentration seen after dosing. As a reminder, the MRT inf is a mean duration of stay, worked out from the concentration-time curve. Usually Tmax stands for the time at which the peak concentration occurs. A word on the half-life: it is the time in which the quantity being followed falls by half. Low readings indicate rapid decline, high ones slow decline. `CNC(=O)c1ncn2c(=O)n(CCF)nnc12` [Compound I-1, 3-(2-fluoroethyl)-N-methyl-4-oxo-3H,4H-imidazo[4,3-d][1,2,3,5]tetrazine-8-carboxamide]: the “plasma Concentration, Individuals” value in data set [1] (PO 20 mg/kg, 0.083 hr, 20 mg/kg) is 20300 ng/mL and 20500 ng/mL; in data set [1] (PO 20 mg/kg, 0.167 hr, 20 mg/kg), 15000 ng/mL and 16600 ng/mL; in data set [1] (PO 20 mg/kg, 0.333 hr, 20 mg/kg), 11300 ng/mL and 13400 ng/mL; in data set [1] (PO 20 mg/kg, 0.5 hr, 20 mg/kg) it was 7050 ng/mL and 7190 ng/mL; in data set [1] (PO 20 mg/kg, 0.75 hr, 20 mg/kg), 4010 ng/mL and 3430 ng/mL; in data set [1] (PO 20 mg/kg, 1 hr, 20 mg/kg) it was 1520 ng/mL and 2430 ng/mL. For the same compound, the “plasma Concentration, Individuals” value is 359 ng/mL and 714 ng/mL and 185 ng/mL in data set [1] (PO 20 mg/kg, 2 hr, 20 mg/kg); 5.01 ng/mL and 2.42 ng/mL and 3.21 ng/mL in data set [1] (PO 20 mg/kg, 4 hr, 20 mg/kg); 2.65 ng/mL and 5.63 ng/mL and 7.33 ng/mL in data set [1] (PO 20 mg/kg, 8 hr, 20 mg/kg). For the same compound, the concentration at 0.083 hr was 20700 ng/mL in data set [1] (male, C57BL/6, mouse, plasma, po, 20 mg/kg, 0.083 hr, N=3, read-out: plasma Concentration, Mean) and 21200 ng/mL in data set [1] (male, C57BL/6, mouse, plasma, po, 20 mg/kg, 0.083 hr, read-out: plasma Concentration, Individuals). Besides, the concentration at 0.167 hr in data set [1] (male, C57BL/6, mouse, plasma, po, 20 mg/kg, 0.167 hr, N=3, read-out: plasma Concentration, Mean) came to 14300 ng/mL; in data set [1] (male, C57BL/6, mouse, plasma, po, 20 mg/kg, 0.167 hr, read-out: plasma Concentration, Individuals), 11300 ng/mL. In addition, the concentration at 0.333 hr in data set [1] (male, C57BL/6, mouse, plasma, po, 20 mg/kg, 0.333 hr, N=3, read-out: plasma Concentration, Mean) was 11200 ng/mL; in data set [1] (male, C57BL/6, mouse, plasma, po, 20 mg/kg, 0.333 hr, read-out: plasma Concentration, Individuals) it was 8830 ng/mL. For the same compound, the concentration at 0.5 hr in data set [1] (male, C57BL/6, mouse, plasma, po, 20 mg/kg, 0.5 hr, N=3, read-out: plasma Concentration, Mean) is 6850 ng/mL; in data set [1] (male, C57BL/6, mouse, plasma, po, 20 mg/kg, 0.5 hr, read-out: plasma Concentration, Individuals) it was 6300 ng/mL. Also, the concentration at 0.75 hr in data set [1] (male, C57BL/6, mouse, plasma, po, 20 mg/kg, 0.75 hr, N=3, read-out: plasma Concentration, Mean) stood at 3810 ng/mL; in data set [1] (male, C57BL/6, mouse, plasma, po, 20 mg/kg, 0.75 hr, read-out: plasma Concentration, Individuals) it was 3980 ng/mL. Moreover, the concentration at 1 hr stood at 2040 ng/mL in data set [1] (male, C57BL/6, mouse, plasma, po, 20 mg/kg, 1 hr, N=3, read-out: plasma Concentration, Mean) and 2180 ng/mL in data set [1] (male, C57BL/6, mouse, plasma, po, 20 mg/kg, 1 hr, read-out: plasma Concentration, Individuals). For the same compound, in data set [1] (male, C57BL/6, mouse, plasma, po, 20 mg/kg, 2 hr, N=3, read-out: plasma Concentration, Mean), the concentration at 2 hr turned out to be 419 ng/mL. For the same compound, the concentration at 4 hr in data set [1] (male, C57BL/6, mouse, plasma, po, 20 mg/kg, 4 hr, N=3, read-out: plasma Concentration, Mean) was found to be 3.55 ng/mL. In data set [1] (male, C57BL/6, mouse, plasma, po, 20 mg/kg, 8 hr, N=3), the concentration at 8 hr worked out at 5.2 ng/mL. Also, in data set [1] (mouse, plasma, PO 20 mg/kg), the AUC(0-inf) came to 9680 ng·h/mL. The AUC(0-t) in data set [1] (mouse, plasma, PO 20 mg/kg) is 9680 ng·h/mL. This compound gave a Cmax in data set [1] (mouse, plasma, PO 20 mg/kg) of 20700 ng/mL. In data set [1] (mouse, plasma, PO 20 mg/kg), this compound displayed an MRT inf of 32.2 min. The Tmax in data set [1] (mouse, plasma, PO 20 mg/kg) stood at 4.98 min. In data set [1] (mouse, plasma, PO 20 mg/kg), this compound showed a half-life of 37.3 min.

As for `Cn1nnc2c(C(N)=O)ncn2c1=O` [TMZ, temozolomide, reference compound], in data set [2] (MLH1-deficient, with or without 10 μM O^6BG), the “cytotoxicity in HCT116 MLH1−/− cells (in words)” value was “inactive”. Also, the “cytotoxicity in HCT116+Chr3 cells (in words)” value in data set [2] (complemented with chromosome 3 containing MLH1, with or without 10 μM O^6BG) is on record as “enhanced sensitivity to TMZ (1a), which was further potentiated by MGMT depletion”. Besides, the “cytotoxicity in DLD1 cells (in words)” value in data set [3] was “inactive”.
